In patent US20260218197A1, “EXTRACELLULAR VESICLE SECRETION REDUCING AGENT FOR REDUCING EXTRACELLULAR VESICLE SECRETION, AND USE OF THE SAME” (THEORIA SCIENCE INC., priority 2020, published 2026):

Tests used:
[1] = system: MDA-MB-231_Luc_D3H2LN cell line; test: Mice implanted with breast cancer metastatic cell line; type: in vivo; details: 40 mg/kg intraperitoneal injection every day from Day 7, vs non-administration group (PBS)
Experimental: As a breast cancer metastatic cell line, an MDA-MB-231_Luc_D3H2LN cell line (hereafter referred to as D3H2LN) was used. […] Specifically, the amounts of secreted EVs in the parent cell line and the D3H2LN were measured by the NTA analysis in the same manner as in Example A1, and also, expression of PSAT1 in the parent cell line and the D3H2LN were measured by Western blotting.
Immunodeficient mice C. B-17 scid mice (female, 6-week old) were used as mice. The D3H2LN was suspended in PBS to prepare a cell suspension of 1×10^6 cells/100 μL. Then, on the 0th day (Day 0), 100 μL of the cell suspension was subcutaneously implanted in the mammary gland of each mouse by injection. Then, on the 7th day (Day7), the D3H2LN cells had engrafted, and to mice of an inhibitor administration group (n=6), an NCT-503 solution (solvent: PBS) was administered by intraperitoneal injection every day at 40 mg/kg of body weight. To mice of a non-administration group (n=6, Vehicle), the same amount of PBS was administered every day instead of the NCT-503. For each of the mice in both the administration group and the non-administration group, the tumor volume in the primary lesion (mammary gland) was measured every week using an IVIS-Spectrum (Summit Pharmaceuticals International Corporation). Specifically, the tumor volume was calculated as per the mathematical expression using the longest diameter and the shortest diameter (shortest diameter×shortest diameter×longest diameter×0.5). Also, the body weight of each mouse was measured every day to determine the toxicity. On the 35th day (Day 35), the mice were sacrificed and the mammary gland as the primary lesion and the lungs as the metastatic lesion were excised from each mouse, after which the weight of the primary lesion was measured.

lung cancer cells A549 = test: Amount of secreted EVs by the NTA method; type: cell-based, human; details: A549, 2.5 μmol/L, 48 hours, serine-deficient medium, compared with NC (DMSO)
Experimental: (§1) The cultured cancer cells were washed with phosphate buffered saline (PBS), and the medium was replaced with advanced RPMI or advanced DMEM containing the above-described antibiotic-antimycotic agent and 2 mmol/L L-glutamine (Gibco). The adjusted culture solution after the replacement was centrifuged at 2,000×g for 10 minutes to remove the cells, and the supernatant obtained was filtered through a 0.22 μm filter (Millipore). The resulting filtrate was centrifuged at 110,000×g for 70 minutes, whereby pellets containing concentrated EVs were obtained. The pellets were washed with 11 mL of PBS, further ultracentrifuged at 110,000×g for 70 minutes, and collected again.
(§2) The secreted EVs were collected and then suspended in PBS. […] An EV concentration was calculated as particles/cells in the culture solution, whereby a net EV secretion rate was obtained. […]
(§3) In a 6-well plate, 2 mL of the cancer cell suspension was seeded at 1.0×10^5 cells/well and incubated for 24 hours. […] 48 hours after the replacement, total RNA was extracted, and the expression of the gene of interest was measured by qPCR.
(§4) Colorectal cancer cells HCT116 and lung cancer cells A549 were each transfected with miR-891b. […] Then, according to the ExoScreen method described above, the amounts of the secreted EVs were measured by measuring the signal intensities. […]

[2] = system: colorectal cancer cells HCT116; test: Amount of secreted EVs by the NTA method; type: cell-based, human; details: HCT116, 2.5 μmol/L, 48 hours, serine-deficient medium, compared with NC (DMSO)
Experimental: as §1, §2, §3, §4

Cc1cc(C)nc(NC(=S)N2CCN(Cc3ccc(C(F)(F)F)cc3)CC2)c1 [NCT-503]
tumor volume of the primary lesion (mammary gland) ([1]; Day 21 and Day 35): significantly reduced | metastatic lesions in the lungs (HE-stained) ([1]; Day 35): fewer metastatic lesions | tumor weight of the primary lesion (mammary gland) ([1]; Day 35): significantly reduced | amount of EVs in the media (NTA, relative to negative control = 1) (lung cancer cells A549): smaller | amount of EVs in the media (NTA, relative to negative control = 1) [2]: smaller
